Key:
SETVI [1] = assay: Post-emergence herbicidal action against SETVI; format: in vivo, Setaria viridis
In short: (§1)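 Weeds in sandy loam soil received a post-emergence spray at the one-leaf stage. Compounds were applied as WP or EC in water, 600 to 800 l/ha, with 0.2% wetting agent. Activity in % was judged visually after roughly 3 weeks against untreated plants.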

ALOMY [2] = assay: Post-emergence herbicidal action against ALOMY; format: in vivo, Alopecurus myosuroides; conditions: dosage 20 g/ha, visual assessment about 3 weeks after treatment vs untreated controls
In short: as §1

VIOTR [3] = assay: Pre-emergence herbicidal action against VIOTR; format: in vivo, Viola tricolor
In short: (§2)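 Visual rating at 3 weeks vs untreated pots; 0–100% scale, 100% = plants died. Treatment: aqueous WP/EC spray onto covering soil, 600–800 l/ha, 0.2% wetter, seeds in sandy loam.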

ECHCG [4] = assay: Post-emergence herbicidal action against ECHCG; format: in vivo, Echinochloa crus-galli
In short: as §1

PHBPU [5] = assay: Pre-emergence herbicidal action against PHBPU; format: in vivo, Pharbitis purpurea; conditions: dosage 80 g/ha
In short: as §2

STEME [6] = assay: Pre-emergence herbicidal action against STEME; format: in vivo, Stellaria media
In short: as §2

MATIN [7] = assay: Post-emergence herbicidal action against MATIN; format: in vivo, Matricaria inodora
In short: as §1

AVEFA [8] = assay: Pre-emergence herbicidal action against AVEFA; format: in vivo, Avena fatua; conditions: 80 g/ha, pre-emergence
In short: as §2

VERPE [9] = assay: Post-emergence herbicidal action against VERPE; format: in vivo, Veronica persica; conditions: 20 g/ha
In short: as §1

PHBPU [10] = assay: Post-emergence herbicidal action against PHBPU; format: in vivo, Pharbitis purpurea
In short: as §1

SETVI [11] = assay: Pre-emergence herbicidal action against SETVI; format: in vivo, Setaria viridis; conditions: dosage 80 g/ha
In short: as §2

DIGSA [12] = assay: Post-emergence herbicidal action against DIGSA; format: in vivo, Digitaria sanguinalis; conditions: for Post-emergence action against DIGSA in %: 5 g/ha; for Post-emergence action against DIGSA: 20 g/ha
In short: as §1

ABUTH [13] = assay: Pre-emergence herbicidal action against ABUTH; format: in vivo, Abutilon theophrasti; conditions: for Pre-emergence action against ABUTH (herbicidal activity): 80 g/ha, scored visually after 3 weeks vs untreated controls (100% = plants have died, 0% = like control plants); for Pre-emergence action against ABUTH (herbicidal activity in percent): dosage 20 g/ha, scored visually after 3 weeks vs untreated controls, 100% = plants have died, 0% = like control plants
In short: as §2

HORMU [14] = assay: Post-emergence herbicidal action against HORMU; format: in vivo, Hordeum murinum; conditions: dosage 20 g/ha
In short: as §1

ALOMY [15] = assay: Pre-emergence herbicidal action against ALOMY; format: in vivo, Alopecurus myosuroides; conditions: 80 g/ha, pre-emergence, scored visually after 3 weeks vs untreated controls (100% = plants have died, 0% = like control plants)
In short: as §2

STEME [16] = assay: Post-emergence herbicidal action against STEME; format: in vivo, Stellaria media
In short: as §1

VERPE [17] = assay: Pre-emergence herbicidal action against VERPE; format: in vivo, Veronica persica; conditions: dosage 80 g/ha
In short: as §2

ECHCG [18] = assay: Pre-emergence herbicidal action against ECHCG; format: in vivo, Echinochloa crus-galli
In short: as §2

DIGSA [19] = assay: Pre-emergence herbicidal action against DIGSA; format: in vivo, Digitaria sanguinalis
In short: as §2

HORMU [20] = assay: Pre-emergence herbicidal action against HORMU; format: in vivo, Hordeum murinum; conditions: 80 g/ha, pre-emergence
In short: as §2

AVEFA [21] = assay: Post-emergence herbicidal action against AVEFA; format: in vivo, Avena fatua; conditions: visual assessment about 3 weeks after treatment, 100% = plants have died, 0% = like control plants
In short: as §1

AMARE [22] = assay: Post-emergence herbicidal action against AMARE; format: in vivo, Amaranthus retroflexus; conditions: 20 g/ha, visual assessment about 3 weeks after treatment, 100% = plants have died, 0% = like control plants
In short: as §1

MATIN [23] = assay: Pre-emergence herbicidal action against MATIN; format: in vivo, Matricaria inodora
In short: as §2

AMARE [24] = assay: Pre-emergence herbicidal action against AMARE; format: in vivo, Amaranthus retroflexus
In short: as §2

ABUTH [25] = assay: Post-emergence herbicidal action against ABUTH; format: in vivo, Abutilon theophrasti; conditions: visual assessment about 3 weeks after treatment vs untreated controls
In short: as §1

LOLRI = assay: Pre-emergence herbicidal action against LOLRI; format: in vivo, Lolium rigidum; conditions: 80 g/ha
In short: as §2

VIOTR [26] = assay: Post-emergence herbicidal action against VIOTR; format: in vivo, Viola tricolor
In short: as §1

POLCO = assay: Pre-emergence herbicidal action against POLCO; format: in vivo, Polygonum convolvulus; conditions: dosage 80 g/ha
In short: as §2

[27] = 20 g/ha, scored visually after 3 weeks vs untreated controls, 100% = plants have died, 0% = like control plants
[28] = 80 g/ha, scored visually after 3 weeks vs untreated controls (100% = plants have died, 0% = like control plants)

Compound: CCn1nnnc1NC(=O)c1ccc(C(F)F)c(C(=O)NC)c1SC [Example 2-87]
- Post-emergence action against SETVI in % (SETVI [1]; dosage 5 g/ha): 80%
- Post-emergence action against SETVI in % (SETVI [1]; dosage 20 g/ha): 80%
- Post-emergence action against ALOMY in % (ALOMY [2]): 80%
- Pre-emergence action against VIOTR in % (VIOTR [3]; dosage 20 g/ha): 90%
- Pre-emergence action against VIOTR in % (VIOTR [3]; dosage 80 g/ha): 90%
- Post-emergence action against ECHCG in % (ECHCG [4]; dosage 5 g/ha): 80%
- Post-emergence action against ECHCG in % (ECHCG [4]; dosage 20 g/ha): 80%
- Pre-emergence action against PHBPU in % (PHBPU [5]): 80%
- Pre-emergence action against STEME in % (STEME [6]; dosage 20 g/ha): 100%
- Pre-emergence action against STEME in % (STEME [6]; dosage 80 g/ha): 100%
- Post-emergence action against MATIN in % (MATIN [7]; dosage 5 g/ha): 80%
- Post-emergence action against MATIN in % (MATIN [7]; dosage 20 g/ha): 90%
- Pre-emergence action against AVEFA in % (AVEFA [8]): 90%
- Post-emergence action against VERPE in % (VERPE [9]): 80%
- Post-emergence action against PHBPU in % (PHBPU [10]; dosage 5 g/ha): 80%
- Post-emergence action against PHBPU in % (PHBPU [10]; dosage 20 g/ha): 80%
- Pre-emergence action against SETVI in % (SETVI [11]): 100%
- Post-emergence action against DIGSA in % (DIGSA [12]): 90%
- Post-emergence action against DIGSA (DIGSA [12]): 90%
- Pre-emergence action against ABUTH (herbicidal activity) (ABUTH [13]): 100%
- Pre-emergence action against ABUTH (herbicidal activity in percent) (ABUTH [13]): 100%
- Post-emergence action against HORMU in % (HORMU [14]): 80%
- Pre-emergence action against ALOMY (herbicidal activity) (ALOMY [15]): 80%
- Post-emergence action against STEME in % (STEME [16]; 20 g/ha): 90%
- Post-emergence action against STEME in % (STEME [16]; dosage 5 g/ha): 80%
- Pre-emergence action against VERPE in % (VERPE [17]): 90%
- Pre-emergence action against ECHCG in % (ECHCG [18]; 20 g/ha): 80%
- Pre-emergence action against ECHCG in % (ECHCG [18]; 80 g/ha): 100%
- Pre-emergence action against DIGSA in % (DIGSA [19]; dosage 20 g/ha): 100%
- Pre-emergence action against DIGSA in % (DIGSA [19]; dosage 80 g/ha): 100%
- Pre-emergence action against HORMU in % (HORMU [20]): 80%
- Post-emergence action at 20 g/ha against AVEFA in % (AVEFA [21]): 80%
- Post-emergence action at 20 g/ha against AMARE in % (AMARE [22]): 90%
- Pre-emergence action against MATIN in % (MATIN [23]; dosage 20 g/ha): 90%
- Pre-emergence action against MATIN in % (MATIN [23]; dosage 80 g/ha): 90%
- Pre-emergence action against AMARE in % (AMARE [24]; [27]): 100%
- Pre-emergence action against AMARE in % (AMARE [24]; [28]): 100%
- Post-emergence action against ABUTH in % (ABUTH [25]; dosage 5 g/ha): 90%
- Post-emergence action against ABUTH in % (ABUTH [25]; dosage 20 g/ha): 90%
- Pre-emergence action against LOLRI in % (LOLRI): 80%
- Post-emergence action against VIOTR in % (VIOTR [26]; 20 g/ha): 100%

Compound: CCNC(=O)c1c(C(F)(F)F)ccc(C(=O)Nc2nnco2)c1Cl [Example 5-117]
- Post-emergence action against SETVI in % (SETVI [1]; dosage 5 g/ha): 100%
- Post-emergence action against SETVI in % (SETVI [1]; dosage 20 g/ha): 100%
- Post-emergence action against ALOMY in % (ALOMY [2]): 80%
- Pre-emergence action against VIOTR in % (VIOTR [3]; dosage 20 g/ha): 100%
- Pre-emergence action against VIOTR in % (VIOTR [3]; dosage 80 g/ha): 100%
- Post-emergence action against ECHCG in % (ECHCG [4]; dosage 5 g/ha): 80%
- Post-emergence action against ECHCG in % (ECHCG [4]; dosage 20 g/ha): 80%
- Pre-emergence action against PHBPU in % (PHBPU [5]): 100%
- Pre-emergence action against STEME in % (STEME [6]; dosage 20 g/ha): 90%
- Pre-emergence action against STEME in % (STEME [6]; dosage 80 g/ha): 90%
- Post-emergence action against MATIN in % (MATIN [7]; dosage 5 g/ha): 80%
- Post-emergence action against MATIN in % (MATIN [7]; dosage 20 g/ha): 90%
- Pre-emergence action against AVEFA in % (AVEFA [8]): 90%
- Pre-emergence action against POLCO in % (POLCO): 80%
- Post-emergence action against VERPE in % (VERPE [9]): 80%
- Post-emergence action against PHBPU in % (PHBPU [10]; dosage 5 g/ha): 80%
- Post-emergence action against PHBPU in % (PHBPU [10]; dosage 20 g/ha): 90%
- Pre-emergence action against SETVI in % (SETVI [11]): 90%
- Post-emergence action against DIGSA in % (DIGSA [12]): 90%
- Post-emergence action against DIGSA (DIGSA [12]): 90%
- Pre-emergence action against ABUTH (herbicidal activity) (ABUTH [13]): 100%
- Pre-emergence action against ABUTH (herbicidal activity in percent) (ABUTH [13]): 100%
- Post-emergence action against HORMU in % (HORMU [14]): 80%
- Pre-emergence action against ALOMY (herbicidal activity) (ALOMY [15]): 90%
- Post-emergence action against STEME in % (STEME [16]; 20 g/ha): 100%
- Post-emergence action against STEME in % (STEME [16]; dosage 5 g/ha): 100%
- Pre-emergence action against ECHCG in % (ECHCG [18]; 20 g/ha): 80%
- Pre-emergence action against ECHCG in % (ECHCG [18]; 80 g/ha): 100%
- Pre-emergence action against DIGSA in % (DIGSA [19]; dosage 20 g/ha): 100%
- Pre-emergence action against DIGSA in % (DIGSA [19]; dosage 80 g/ha): 100%
- Pre-emergence action against HORMU in % (HORMU [20]): 80%
- Post-emergence action at 5 g/ha against AVEFA in % (AVEFA [21]; 5 g/ha): 80%
- Post-emergence action at 20 g/ha against AVEFA in % (AVEFA [21]): 90%
- Post-emergence action at 20 g/ha against AMARE in % (AMARE [22]): 100%
- Pre-emergence action against MATIN in % (MATIN [23]; dosage 20 g/ha): 90%
- Pre-emergence action against MATIN in % (MATIN [23]; dosage 80 g/ha): 100%
- Pre-emergence action against AMARE in % (AMARE [24]; [27]): 90%
- Pre-emergence action against AMARE in % (AMARE [24]; [28]): 90%
- Post-emergence action against ABUTH in % (ABUTH [25]; dosage 5 g/ha): 80%
- Post-emergence action against ABUTH in % (ABUTH [25]; dosage 20 g/ha): 90%
- Pre-emergence action against LOLRI in % (LOLRI): 80%
- Post-emergence action against VIOTR in % (VIOTR [26]; 5 g/ha): 90%
- Post-emergence action against VIOTR in % (VIOTR [26]; 20 g/ha): 100%

Source: patent US12655116B2, “Substituted isophthalic acid diamides” (Bayer Aktiengesellschaft, priority 2020, dated 2026)
